Measured values published in patent US20230143612A1 (Arbutus Biopharma Corporation, priority 2020, published 2023).
pIC50: −log10 of the molar value.

Each molecule was assayed against PD-L1 His protein / PD-1 Fc protein (Homo sapiens, UniProt Q9NZQ7) (assay: HTRF Assay (PD-1/PD-L1 interaction)). Conditions: PD-L1 His 6 nM, PD-1 Fc 6 nM.
Assay type: binding
In short: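 HTRF: PD-L1 His (6 nM final), compound (3-fold dilutions, 20 μM to 0.001 μM final) and PD-1 Fc (6 nM final) preincubated 15 min at room temperature. Anti-human IgG-XL665 and anti-6HIS Tb cryptate (mixed at 6.7 nM and 0.35 nM) then added for 1 h at room temperature before reading.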

Chain of PD-L1 His protein / PD-1 Fc protein (Q9NZQ7 19-238 limits assumed): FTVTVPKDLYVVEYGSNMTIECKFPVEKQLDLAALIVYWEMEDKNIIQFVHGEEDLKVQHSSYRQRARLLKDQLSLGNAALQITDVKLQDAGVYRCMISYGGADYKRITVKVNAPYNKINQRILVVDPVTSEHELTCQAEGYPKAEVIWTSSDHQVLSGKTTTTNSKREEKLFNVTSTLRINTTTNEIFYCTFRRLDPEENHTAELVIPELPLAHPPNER

Q: How did the pIC50 turn out when `COc1nc(-c2cccc(-c3cccc(-c4ccn5c(=O)c(CNCCN6CCNC(=O)C6)cnc5c4)c3Cl)c2Cl)ccc1CNC[C@@H]1CCC(=O)N1` [Example 264, (S)-8-(2,2′-dichloro-3′-(6-methoxy-5-((((5-oxopyrrolidin-2-yl)methyl)-amino)-methyl)-pyridin-2-yl)-[1,1′-biphenyl]-3-yl)-3-(((2-(3-oxopiperazin-1-yl)ethyl)amino)methyl)-4H-pyrido[1,2-a]pyrimidin-4-one] was run?
A: 10.00

Q: With `COc1nc(-c2cccc(-c3cccc(-c4ccn5c(=O)c(CNCC6(C)COC6)cnc5c4)c3Cl)c2Cl)ccc1CNC[C@@H]1CCC(=O)N1` [Example 246, (S)-8-(2,2′-dichloro-3′-(6-methoxy-5-((((5-oxopyrrolidin-2-yl)-methyl)amino)-methyl)pyridin-2-yl)-[1,1′-biphenyl]-3-yl)-3-((((3-methyloxetan-3-yl)-methyl)-amino)-methyl)-4H-pyrido[1,2-a]pyrimidin-4-one] as the molecule, how does the pIC50 read?
A: 8.17

Q: `COc1nc(-c2cccc(-c3cccc(-c4cc5c(=O)n(C)c(CNC[C@@H](O)CC(=O)O)nn5c4)c3Cl)c2Cl)ccc1CNC[C@@H]1CCC(=O)N1` [Example 493, (3S)-4-[[6-[2-Chloro-3-[2-chloro-3-[6-methoxy-5-[[[(2S)-5-oxopyrrolidin-2-yl]methylamino]methyl]-2-pyridyl]phenyl]phenyl]-3-methyl-4-oxo-pyrrolo[2,1-f][1,2,4]triazin-2-yl]methylamino]-3-hydroxy-butanoic acid] was tested. Which pIC50 did it give?
A: 10.00

Q: With `COc1nc(-c2cccc(-c3cccc(-c4ccc5nc(CNC[C@@H]6CCC(=O)N6)cc(=O)n5c4)c3Cl)c2Cl)ccc1CNC[C@@H]1CCC(=O)N1` [Example 212, 7-(2,2′-Dichloro-3′-(6-methoxy-5-(((((S)-5-oxopyrrolidin-2-yl)methyl)amino)methyl)pyridin-2-yl)-[1,1′-biphenyl]-3-yl)-2-(((((S)-5-oxopyrrolidin-2-yl)methyl)amino)methyl)-4H-pyrido[1,2-a]pyrimidin-4-one] as the molecule, how does the pIC50 read?
A: 10.00

Q: With `COC(=O)C[C@H](O)CNCc1ccc(-c2cccc(-c3cccc(-c4ccn5c(=O)c(CNC[C@@H](O)CC(=O)OC)cnc5c4)c3Cl)c2Cl)nc1OC` [Example 231, Methyl (3S)-4-[[6-[2-chloro-3-[2-chloro-3-[3-[[[(2S)-2-hydroxy-4-methoxy-4-oxo-butyl]amino]methyl]-4-oxo-pyrido[1,2-a]pyrimidin-8-yl]phenyl]phenyl]-2-methoxy-3-pyridyl]methylamino]-3-hydroxy-butanoate] as the molecule, how does the pIC50 read?
A: 6.92

Q: `Cn1cc(CNC[C@@H]2CCC(=O)N2)c2ccc(-c3cccc(-c4cccc(-c5ccc6c(CNC[C@@H]7CCC(=O)N7)cn(C)c6n5)c4Cl)c3Cl)nc21` [Example 417, (5S)-5-[[[6-[2-Chloro-3-[2-chloro-3-[1-methyl-3-[[[(2S)-5-oxopyrrolidin-2-yl]methylamino]methyl]pyrrolo[2,3-b]pyridin-6-yl]phenyl]phenyl]-1-methyl-pyrrolo[2,3-b]pyridin-3-yl]methylamino]methyl]pyrrolidin-2-one] was tested. Which pIC50 did it give?
A: 7.49

Q: How did the pIC50 turn out when `COc1nc(-c2cccc(-c3cccc(-c4ccn5c(=O)c(CNCC6(C)CCC(=O)N6)cnc5c4)c3Cl)c2Cl)ccc1CNC[C@@H]1CCC(=O)N1` (stereo partly drawn) [Example 368, 8-(2,2′-dichloro-3′-(6-methoxy-5-(((((S)-5-oxopyrrolidin-2-yl)-methyl)-amino)-methyl)-pyridin-2-yl)-[1,1′-biphenyl]-3-yl)-3-((((2-methyl-5-oxopyrrolidin-2-yl)methyl)-amino)-methyl)-4H-pyrido[1,2-a]pyrimidin-4-one] was run?
A: 9.00

Q: How did the pIC50 turn out when `CCOc1nc(-c2cccc(-c3cccc(-c4ccn5c(=O)c(CNC[C@@H]6CCC(=O)N6)cnc5c4)c3C)c2Cl)ccc1CNC[C@@H]1CCC(=O)N1` [Example 72, 8-(2′-Chloro-3′-(6-ethoxy-5-(((((S)-5-oxopyrrolidin-2-yl)methyl)amino)methyl)pyridin-2-yl)-2-methyl-[1,1′-biphenyl]-3-yl)-3-(((((S)-5-oxopyrrolidin-2-yl)methyl)amino)methyl)-4H-pyrido[1,2-a]pyrimidin-4-one] was run?
A: 8.03

Q: How did the pIC50 turn out when `COc1nc(-c2cccc(-c3cccc(-c4ccc5c(c4)N(C)CCNC5)c3Cl)c2Cl)ccc1CNC[C@@H]1CCC(=O)N1` [Example 364, (S)-5-((((6-(2,2′-Dichloro-3′-(1-methyl-2,3,4,5-tetrahydro-1H-benzo[e][1,4]diazepin-8-yl)-[1,1′-biphenyl]-3-yl)-2-methoxypyridin-3-yl)methyl)amino)methyl)pyrrolidin-2-one] was run?
A: 6.82

Q: With `COc1nc(-c2cccc(-c3cccc(-c4cc5c(=O)n(C)c(CNCC(C)(C)O)nn5c4)c3Cl)c2Cl)ccc1CNC[C@@H]1CCC(=O)N1` [Example 405, (S)-6-(2,2′-Dichloro-3′-(6-methoxy-5-((((5-oxopyrrolidin-2-yl)methyl)amino)methyl)pyridin-2-yl)-[1,1′-biphenyl]-3-yl)-2-(((2-hydroxy-2-methylpropyl)amino)methyl)-3-methylpyrrolo [2,1-f][1,2,4]triazin-4(3H)-one] as the molecule, how does the pIC50 read?
A: 7.08

Q: With `COc1nc(-c2cccc(-c3cccc(-c4ccn5c(=O)c(CN6CCC6C(N)=O)cnc5c4)c3Cl)c2Cl)ccc1CNC[C@@H]1CCC(=O)N1` (mixture of isomers) [Example 259, 1-[[8-[2-Chloro-3-[2-chloro-3-[6-methoxy-5-[[[(2S)-5-oxopyrrolidin-2-yl]methylamino]methyl]-2-pyridyl]phenyl]phenyl]-4-oxo-pyrido[1,2-a]pyrimidin-3-yl]methyl]azetidine-2-carboxamide] as the molecule, how does the pIC50 read?
A: 8.64

Q: How did the pIC50 turn out when `O=C1CC[C@@H](CNCc2nc3cc(-c4cccc(-c5cccc(-c6ccn7c(Cl)c(CNC[C@@H]8CCC(=O)N8)nc7c6)c5Cl)c4Cl)ccn3c2Cl)N1` [Example 430, (5S)-5-[[[3-Chloro-7-[2-chloro-3-[2-chloro-3-[3-chloro-2-[[[(2S)-5-oxopyrrolidin-2-yl]methylamino]methyl]imidazo[1,2-a]pyridin-7-yl]phenyl]phenyl]imidazo[1,2-a]pyridin-2-yl]methylamino]methyl]pyrrolidin-2-one] was run?
A: 6.77

Q: `COc1nc(-c2cccc(-c3cccc(-c4ccn5c(=O)c(CNC[C@@H]6CCO6)cnc5c4)c3Cl)c2Cl)ccc1CNC[C@@H]1CCC(=O)N1` [Example 306, 8-[2-Chloro-3-[2-chloro-3-[6-methoxy-5-[[[(2S)-5-oxopyrrolidin-2-yl]methylamino]methyl]-2-pyridyl]phenyl]phenyl]-3-[[[(2S)-oxetan-2-yl]methylamino]methyl]pyrido[1,2-a]pyrimidin-4-one] was tested. Which pIC50 did it give?
A: 8.32

Q: `COc1c(CNC[C@@H]2CCC(=O)N2)ccc(-c2cccc(-c3cccc(-c4ccn5c(=O)c(CNC[C@@H]6CCC(=O)N6)cnc5c4)c3Cl)c2Cl)c1F` [Example 105, 8-[2-Chloro-3-[2-chloro-3-[2-fluoro-3-methoxy-4-[[[(2S)-5-oxopyrrolidin-2-yl]methylamino]methyl]phenyl]phenyl]phenyl]-3-[[[(2S)-5-oxopyrrolidin-2-yl]methylamino]methyl]pyrido[1,2-a]pyrimidin-4-one] was tested. Which pIC50 did it give?
A: 8.23

Q: How did the pIC50 turn out when `COc1nc(-c2cccc(-c3cccc(-c4ccn5c(=O)c(CNC[C@@H]6CCC(=O)N6)cnc5c4)c3Cl)c2Cl)ccc1CN1CC(C(=O)O)C1` [Example 119, (S)-1-((6-(2,2′-Dichloro-3′-(4-oxo-3-((((5-oxopyrrolidin-2-yl)methyl)amino)methyl)-4H-pyrido[1,2-a]pyrimidin-8-yl)-[1,1′-biphenyl]-3-yl)-2-methoxypyridin-3-yl)methyl)azetidine-3-carboxylic acid] was run?
A: 9.52

Q: How did the pIC50 turn out when `COc1nc(-c2cccc(-c3cccc(-c4ccc5c(n4)N(C)CCC5NC[C@@H]4CCC(=O)N4)c3Cl)c2Cl)ccc1CNC[C@@H]1CCC(=O)N1` (mixture of isomers) [Example 51, (5S)-5-(((7-(2,2′-Dichloro-3′-(6-methoxy-5-(((((S)-5-oxopyrrolidin-2-yl)methyl)amino)methyl)pyridin-2-yl)-[1,1′-biphenyl]-3-yl)-1-methyl-1,2,3,4-tetrahydro-1,8-naphthyridin-4-yl)amino)methyl)pyrrolidin-2-one] was run?
A: 8.54

Q: `COc1nc(-c2cccc(-c3cccc(-c4ccn5c(=O)c(CN[C@@H](CO)C(=O)O)cnc5c4)c3Cl)c2Cl)ccc1CNC[C@@H]1CCC(=O)N1` [Example 151, ((8-(2,2′-Dichloro-3′-(6-methoxy-5-(((((S)-5-oxopyrrolidin-2-yl)methyl)amino)methyl)pyridin-2-yl)-[1,1′-biphenyl]-3-yl)-4-oxo-4H-pyrido[1,2-a]pyrimidin-3-yl)methyl)-L-serine] was tested. Which pIC50 did it give?
A: 9.52

Q: `COc1nc(-c2cccc(-c3cccc(-c4cc(C)n5c(=O)c(CNC[C@H](C)O)cnc5c4)c3Cl)c2Cl)ccc1CNC[C@@H]1CCC(=O)N1` [Example 226, 8-(2,2′-Dichloro-3′-(6-methoxy-5-(((((S)-5-oxopyrrolidin-2-yl)methyl)amino)methyl)pyridin-2-yl)-[1,1′-biphenyl]-3-yl)-3-((((S)-2-hydroxypropyl)amino)methyl)-6-methyl-4H-pyrido[1,2-a]pyrimidin-4-one] was tested. Which pIC50 did it give?
A: 7.82

Q: `COc1nc(-c2cccc(-c3cccc(-c4ccc5c(n4)nc(CN[C@H]4C[C@H](O)C4)n5C)c3Cl)c2Cl)ccc1CN[C@H]1C[C@H](O)C1` [Example 313, (1r,3r)-3-(((6-(2,2′-Dichloro-3′-(2-((((1r,3r)-3-hydroxycyclobutyl)amino)methyl)-1-methyl-1H-imidazo[4,5-b]pyridin-5-yl)-[1,1′-biphenyl]-3-yl)-2-methoxypyridin-3-yl)methyl)amino)cyclobutan-1-ol] was tested. Which pIC50 did it give?
A: 8.72

Q: With `Cc1c(COc2cc(OCc3cncc(C#N)c3)c(CNC[C@H]3CCC(=O)N3)cc2Cl)cccc1-c1cccc(-c2ccn3c(=O)c(CNC[C@H]4CCC(=O)N4)ccc3c2)c1C` [Example 28, 5-((4-Chloro-5-((2,2′-dimethyl-3′-(4-oxo-3-(((((R)-5-oxopyrrolidin-2-yl)methyl)amino)methyl)-4H-quinolizin-8-yl)-[1,1′-biphenyl]-3-yl)methoxy)-2-(((((R)-5-oxopyrrolidin-2-yl)methyl)amino)methyl)phenoxy)methyl)nicotinonitrile] as the molecule, how does the pIC50 read?
A: 9.15
